According to patent publication US20240132484A1, “BROAD SPECTRUM ANTIVIRAL COMPOUNDS TARGETING THE SKI COMPLEX” (priority 2020, published 2024):

Legend:
SARS2 = format: cell-based, SARS-CoV-2; details: for Percentage Inhibition Average 1 μM / Screening data (Relative infection to DMSO controls) Average 1 μM: SARS2, 1 μM; for Screening data (Relative infection to DMSO controls) Average 1 μM / Screening data (Relative infection to DMSO controls) Average 5 μM / Screening data (Relative infection to DMSO controls) Average 10 μM / Screening data (Relative infection to DMSO controls) Average 25 μM / Screening data (Relative infection to DMSO controls) Average 50 μM / Average (relative infection to DMSO over the 5 tested concentrations): 100=DMSO control; for Percentage Inhibition Average 5 μM / Screening data (Relative infection to DMSO controls) Average 5 μM: SARS2, 5 μM; for Percentage Inhibition Average 10 μM / Screening data (Relative infection to DMSO controls) Average 10 μM: SARS2, 10 μM; for Percentage Inhibition Average 25 μM / Screening data (Relative infection to DMSO controls) Average 25 μM: SARS2, 25 μM; for Percentage Inhibition Average 50 μM / Screening data (Relative infection to DMSO controls) Average 50 μM: SARS2, 50 μM; for Average (relative infection to DMSO over the 5 tested concentrations): SARS2, average over 1 to 50 uM
cells (nuclei count) = details: for Relative cell count to DMSO controls, Average 1 μM / Relative cell count to DMSO controls, Average 5 μM / Relative cell count to DMSO controls, Average 10 μM / Relative cell count to DMSO controls, Average 25 μM / Relative cell count to DMSO controls, Average 50 μM: toxicity data, 100=DMSO control; for Relative cell count to DMSO controls, Average (for correlation analysis): average value over the 5 tested concentrations (1 to 50 uM)

Compound	Percentage Inhibition Average 1 μM (SARS2)	Screening data (Relative infection to DMSO controls) Average 1 μM (SARS2)	Percentage Inhibition Average 5 μM (SARS2)	Screening data (Relative infection to DMSO controls) Average 5 μM (SARS2)	Percentage Inhibition Average 10 μM (SARS2)	Screening data (Relative infection to DMSO controls) Average 10 μM (SARS2)	Percentage Inhibition Average 25 μM (SARS2)	Screening data (Relative infection to DMSO controls) Average 25 μM (SARS2)	Percentage Inhibition Average 50 μM (SARS2)	Screening data (Relative infection to DMSO controls) Average 50 μM (SARS2)	Average (relative infection to DMSO over the 5 tested concentrations) (SARS2)	Relative cell count to DMSO controls, Average 1 μM (cells (nuclei count))	Relative cell count to DMSO controls, Average 5 μM (cells (nuclei count))	Relative cell count to DMSO controls, Average 10 μM (cells (nuclei count))	Relative cell count to DMSO controls, Average 25 μM (cells (nuclei count))	Relative cell count to DMSO controls, Average 50 μM (cells (nuclei count))	Relative cell count to DMSO controls, Average (for correlation analysis) (cells (nuclei count))
CC1=C(C(=O)NCc2ccccc2)C(c2scc3c2OCCO3)NC(=O)N1 (centres unmarked) [SILCS66]	−3.65%	103.65	38.92%	61.08	−7.16%	107.16	−12.41%	112.41	−28.18%	128.18	102.50	98.81	109.01	93.98	90.79	84.65	95.45
CC1=C(C(=O)NCC2CCCCC2)C(c2cc(C)c(Br)s2)NC(=O)N1 (centres unmarked) [SILCS68]	32.72%	67.28	28.63%	71.37	16.60%	83.40	−10.69%	110.69	20.80%	79.20	82.39	117.26	114.63	110.48	100.14	91.82	106.87
CC1=C(C(=O)NCc2ccccc2)C(c2ccc(C)o2)NC(=O)N1 (centres unmarked) [SILCS69]	44.23%	55.77	29.45%	70.55	24.51%	75.49	−26.06%	126.06	−48.18%	148.18	95.21	114.56	113.8	108.32	93.65	79.5	101.97
CC1=C(C(=O)NCC2CCCCC2)C(c2cccs2)NC(=O)N1 (centres unmarked) [SILCS70]	71.98%	28.02	38.83%	61.17	10.99%	89.01	−45.91%	145.91	−47.89%	147.89	94.40	130.04	111.32	104.3	93.9	79.59	103.83
